How the values were obtained:
[1] = biological target: T1, MAPK1(ERK2) enzyme (Homo sapiens, UniProt P28482); experiment: Z-Lyte Kinase Assay of ERK2; type: biochemical; conditions: read-out: Example 18 IC50
T1 construct: purchased Invitrogen PV3313
Method in brief: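 FRET-based Z-LYTE assay using ERK2 kinase with Ser/Thr3 peptide; compound tested at 0.00046–1 μM final in 2% DMSO. Kinase reaction ran 1 h at 25-30° C, followed by 1 h development. The coumarin/fluorescein emission ratio (445/520 nm) gave % phosphorylation, and IC50 was fitted from inhibition relative to uninhibited control.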

[2] = tested on: p-RSK (Thr359) in colo205 cells; experiment: p-RSK (Thr359) Acumen Assay in Colo205; type: cell-based; conditions: Homo sapiens, COLO 205, 1 hour compound incubation, read-out: Example 19 IC50
Method in brief: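 Colo205 cells (4000/well, seeded overnight in 10% FBS) were exposed 1 hour at 37° C to compound added from a 3–0.001 μM dilution series in 5% DMSO. Cells were then fixed, permeabilised and immunostained for p-RSK Thr359, with PI counterstain. Acumen cytometry gave the percentage of positive cells, normalised to untreated wells and 3 uM GDC0994 wells, for the IC50 fit.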

T1 sequence (P28482 whole entry): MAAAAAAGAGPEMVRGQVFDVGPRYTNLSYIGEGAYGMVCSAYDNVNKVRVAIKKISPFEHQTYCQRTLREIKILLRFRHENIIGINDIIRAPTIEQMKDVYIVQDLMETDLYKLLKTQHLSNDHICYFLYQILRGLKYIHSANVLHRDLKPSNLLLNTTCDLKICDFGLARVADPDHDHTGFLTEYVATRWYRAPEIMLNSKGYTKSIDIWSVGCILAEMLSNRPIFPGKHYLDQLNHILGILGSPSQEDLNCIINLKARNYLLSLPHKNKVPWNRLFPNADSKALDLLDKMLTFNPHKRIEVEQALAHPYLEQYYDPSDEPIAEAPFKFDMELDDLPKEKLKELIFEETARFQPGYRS

| Compound | IC50 [1] [µM] | IC50 [2] [µM] |
| --- | --- | --- |
| Cn1nccc1Nc1cc(-c2cc3n(c2)CCCn2c-3nnc2[C@H](O)C2CCCCC2)c(Cl)cn1 [Compound 24] | 0.005 to 0.01 | > 0.1 |
| C[C@H]1CCn2cc(-c3cc(Nc4ccnn4C)ncc3Cl)cc2-c2nnc(C3(C(F)(F)F)CCC3)n21 [Compound 262] | 0.005 to 0.01 | ≤ 0.1 |
| Cn1nccc1Nc1cc(-c2cc3n(c2)CC2(CC2)n2c-3nnc2C2(C(F)(F)F)CCC2)c(Cl)cn1 [Compound 259] | 0.005 to 0.01 | ≤ 0.1 |
| Cn1nccc1Nc1cc(-c2cc3n(c2)C[C@H](CF)n2c-3nnc2C2(C(C)(F)F)CCC2)c(Cl)cn1 [Compound 116] | 0.005 to 0.01 | > 0.1 |
| COCC1Cn2cc(-c3cc(Nc4ccnn4C)ncc3Cl)cc2-c2nnc(C3(C(F)(F)F)CCC3)n2C1 (stereo not shown) [Compound 300, 5-chloro-4-(6-(methoxymethyl)-3-(1-(trifluoromethyl)cyclobutyl)-6,7-dihydro-5H-pyrrolo[1,2-a][1,2,4]triazolo[3,4-c][1,4]diazepin-10-yl)-N-(1-methyl-1H-pyrazol-5-yl)pyridin-2-amine] | 0.005 to 0.01 | ≤ 0.1 |
| Cc1cnc(Nc2ccnn2C)cc1-c1cc2n(c1)CCn1c-2nnc1C(F)(F)c1ccccc1F [Compound 68] | 0.005 to 0.01 | > 0.1 |
| Cn1nccc1Nc1cc(-c2cc3n(c2)CCCn2c-3nnc2C2(C(F)(F)F)CCC2)c(C(F)(F)F)cn1 [Compound 271] | 0.005 to 0.01 | ≤ 0.1 |
| C[C@H]1Cn2cc(-c3cc(Nc4ccnn4C)ncc3Cl)cc2-c2nnc(C(F)(F)c3ccccc3Cl)n21 [Compound 178] | > 0.01 | ≤ 0.1 |
| Cc1cnc(Nc2ccnn2C)cc1-c1cc2n(c1)C[C@H](C)n1c-2nnc1C(F)(F)c1ccccc1Cl [Compound 118] | > 0.01 | ≤ 0.1 |
| Cn1nccc1Nc1cc(-c2cc3n(c2)CCCn2c(COc4ccccc4F)nnc2-3)c(C(F)(F)F)cn1 [Compound 272] | > 0.01 | ≤ 0.1 |
| COC[C@H]1Cn2cc(-c3cc(Nc4ccnn4C)ncc3C)cc2-c2nnc(C(F)(F)c3ccccc3F)n21 [Compound 303] | 0.005 to 0.01 | > 0.1 |
| C[C@H]1Cn2cc(-c3nc(Nc4ccnn4C)ncc3F)cc2-c2nnc(C(F)(F)c3ccccc3F)n21 [Compound 97] | 0.005 to 0.01 | ≤ 0.1 |
| Cn1nccc1Nc1cc(-c2cc3n(c2)[C@H]2CC[C@H](C2)n2c-3nnc2C2(C(F)(F)F)CCC2)c(Cl)cn1 [Compound 267] | > 0.01 | > 0.1 |
| Cn1nccc1Nc1cc(-c2cc3n(c2)C[C@H](CF)n2c-3nnc2C(F)(F)c2cccc(F)c2)c(Cl)cn1 [Compound 191] | 0.005 to 0.01 | > 0.1 |
| Cc1cnc(Nc2ncnn2C)cc1-c1cc2n(c1)C[C@H](CF)n1c-2nnc1C(F)(F)c1ccccc1Cl [Compound 173] | 0.005 to 0.01 | > 0.1 |
| CCCn1nccc1Nc1ncc(C)c(-c2cc3n(c2)C[C@H](C)n2c-3nnc2C(F)(F)c2ccccc2F)n1 [Compound 291] | > 0.01 | ≤ 0.1 |
| Cc1cc(Nc2ncc(C)c(-c3cc4n(c3)C[C@H](C)n3c-4nnc3C(F)(F)c3ccccc3F)n2)n(C)n1 [Compound 288] | > 0.01 | ≤ 0.1 |
| CCn1nccc1Nc1ncc(C)c(-c2cc3n(c2)C[C@H](C)n2c-3nnc2C(F)(F)c2ccccc2F)n1 [Compound 289] | > 0.01 | ≤ 0.1 |
| Cn1nccc1Nc1cc(-c2cc3n(c2)C[C@H](CF)n2c(Cc4ccccc4F)nnc2-3)c(Cl)cn1 [Compound 92] | 0.005 to 0.01 | ≤ 0.1 |
| Cn1nccc1Nc1cc(-c2cc3n(c2)C[C@H](CF)n2c(Cc4c(F)cccc4F)nnc2-3)c(Cl)cn1 [Compound 139] | ≤ 0.005 | ≤ 0.1 |
| Cc1c(-c2ccnc(Nc3ccnn3C)n2)cn2c1-c1nnc(COc3ccccc3F)n1CCC2 [Compound 16] | ≤ 0.005 | ≤ 0.1 |
| Cc1cnc(Nc2ccnn2C)nc1-c1cc2n(c1)C[C@H](C)n1c-2nnc1C(F)(F)c1ccccc1F [Compound 88] | ≤ 0.005 | ≤ 0.1 |
| Cc1cnc(Nc2ccnn2C)cc1-c1cc2n(c1)C[C@H](CF)n1c-2nnc1C(F)(F)c1cc(F)ccc1F [Compound 183] | ≤ 0.005 | ≤ 0.1 |
| Cc1cnc(Nc2ccnn2C)cc1-c1cc2n(c1)CC(F)(F)Cn1c-2nnc1C1(C(F)(F)F)CC1 [Compound 87] | ≤ 0.005 | ≤ 0.1 |
| Cc1cnc(Nc2ccnn2C)cc1-c1cc2n(c1)C(C)CCn1c-2nnc1C1(C(F)(F)F)CCC1 (stereo not shown) [Compound 77] | ≤ 0.005 | ≤ 0.1 |
| Cc1cnc(Nc2ccnn2C)cc1-c1cc2n(c1)C[C@H](CF)n1c-2nnc1C(F)(F)Oc1ccccc1F [Compound 170] | > 0.01 | > 0.1 |
| Cc1cnc(Nc2ccnn2C)cc1-c1cc2n(c1)C[C@H](CF)n1c-2nnc1C(F)(F)c1cccc(F)c1 [Compound 127] | 0.005 to 0.01 | ≤ 0.1 |
| Cn1nccc1Nc1cc(-c2cc3n(c2)CCCn2c(COc4ccccc4F)nnc2-3)c(F)cn1 [Compound 244] | 0.005 to 0.01 | ≤ 0.1 |
| Cc1cnc(Nc2ccnn2C)nc1-c1cc2n(c1)C[C@H](CF)n1c-2nnc1C(F)(F)c1c(F)cccc1F [Compound 189] | 0.005 to 0.01 | ≤ 0.1 |

Other lines, results leading:

| IC50 [1] [µM] | IC50 [2] [µM] | Compound |
| --- | --- | --- |
| ≤ 0.005 | ≤ 0.1 | Cn1nccc1Nc1cc(-c2cc3n(c2)C[C@H](O)Cn2c-3nnc2C2(C(F)(F)F)CCC2)c(Cl)cn1 [Compound 215, (S)-10-(5-chloro-2-((1-methyl-1H-pyrazol-5-yl)amino)pyridin-4-yl)-3-(1-(trifluoromethyl)cyclobutyl)-6,7-dihydro-5H-pyrrolo[1,2-a][1,2,4]triazolo[3,4-c][1,4]diazepin-6-ol] |
| ≤ 0.005 | ≤ 0.1 | Cn1nccc1Nc1cc(-c2cc3n(c2)C[C@H](CF)n2c-3nnc2C(F)(F)c2ccnn2C)c(Cl)cn1 [Compound 154] |
| ≤ 0.005 | ≤ 0.1 | Cc1cnc(Nc2ccnn2C)nc1-c1cc2n(c1)C[C@H](CF)n1c-2nnc1C(F)(F)n1cc(Cl)cn1 [Compound 156] |
| ≤ 0.005 | ≤ 0.1 | Cc1cc(Nc2ncc(C)c(-c3cc4n(c3)CCCn3c-4nnc3C3(C(F)(F)F)CCC3)n2)ccn1 [Compound 281, 5-methyl-N-(2-methylpyridin-4-yl)-4-(3-(1-(trifluoromethyl)cyclobutyl)-6,7-dihydro-5H-pyrrolo[1,2-a][1,2,4]triazolo[3,4-c][1,4]diazepin-10-yl)pyrimidin-2-amine] |
| ≤ 0.005 | > 0.1 | C[C@H]1Cn2cc(-c3ccnc(Nc4ccnn4C)c3)cc2-c2nnc(C(F)(F)c3ccccc3F)n21 [Compound 69] |
| ≤ 0.005 | ≤ 0.1 | Cc1cnc(Nc2ccnn2C)cc1-c1cc2n(c1)CC(F)(F)Cn1c-2nnc1C1(C(F)F)CC(F)(F)C1 [Compound 169] |
| ≤ 0.005 | ≤ 0.1 | Cn1nccc1Nc1cc(-c2cc3n(c2)CCCn2c(Cc4ccccc4C#N)nnc2-3)c(Cl)cn1 [Compound 27] |
| ≤ 0.005 | ≤ 0.1 | Cc1cnc(Nc2ccnn2C)cc1-c1cc2n(c1)C[C@H](CF)n1c-2nnc1C(F)(F)n1ccc(F)n1 [Compound 104] |
| ≤ 0.005 | > 0.1 | Cn1nccc1Nc1cc(-c2cc3n(c2)CCCn2c(COCC(F)(F)F)nnc2-3)c(Cl)cn1 [Compound 25] |
| ≤ 0.005 | ≤ 0.1 | Cn1nccc1Nc1ncnc(-c2cc3n(c2)C[C@H](CF)n2c-3nnc2C(F)(F)c2ccccc2Cl)n1 [Compound 144] |
| ≤ 0.005 | > 0.1 | C[C@H]1Cn2cc(-c3cc(Nc4ccnn4C)ncc3F)cc2-c2nnc(C(F)(F)n3cc(Cl)cn3)n21 [Compound 109] |
| ≤ 0.005 | ≤ 0.1 | Cc1cnc(Nc2ccnn2C)cc1-c1cc2n(c1)C[C@H](CF)n1c-2nnc1C(F)(F)n1ccc(Cl)n1 [Compound 152] |
| ≤ 0.005 | ≤ 0.1 | Cc1cnc(Nc2ccnn2C)cc1-c1cc2n(c1)[C@H]1CC[C@H](C1)n1c-2nnc1C(F)(F)C(F)F [Compound 67] |
| ≤ 0.005 | > 0.1 | Cc1cnc(NC2CC(F)(F)C2)nc1-c1cc2n(c1)CCCn1c-2nnc1C1(C(F)(F)F)CCC1 [Compound 278] |
| ≤ 0.005 | ≤ 0.1 | Cc1cnc(Nc2ccnn2C)cc1-c1cc2n(c1)CC(F)(F)Cn1c-2nnc1C(F)(F)C(F)F [Compound 78] |
| ≤ 0.005 | ≤ 0.1 | Cc1cnc(Nc2ccnn2C)cc1-c1cc2n(c1)C[C@H](CF)n1c-2nnc1C(F)(F)n1ccccc1=O [Compound 124] |
| ≤ 0.005 | > 0.1 | Cn1nccc1Nc1cc(-c2cc3n(c2)CCC2(CC2)n2c(CCC(F)(F)F)nnc2-3)c(Cl)cn1 [Compound 255] |
| ≤ 0.005 | ≤ 0.1 | Cn1nccc1Nc1ncc(F)c(-c2cc3n(c2)C[C@H](CF)n2c-3nnc2C(F)(F)c2ccccc2)n1 [Compound 98] |
| ≤ 0.005 | > 0.1 | Cc1cc(Nc2ncc(C)c(-c3cc4n(c3)CCCn3c-4nnc3C3(C(F)(F)F)CCC3)n2)on1 [Compound 284] |
| ≤ 0.005 | ≤ 0.1 | Cn1nccc1Nc1cc(-c2cc3n(c2)CC(F)(F)Cn2c-3nnc2C2(C(F)(F)F)CC2)c(Cl)cn1 [Compound 140] |
| ≤ 0.005 | ≤ 0.1 | COC[C@H]1Cn2cc(-c3nc(Nc4ccnn4C)ncc3C)nc2-c2nnc(C(F)(F)c3ccccc3Cl)n21 [Compound 220, (R)-4-(3-((2-chlorophenyl)difluoromethyl)-5-(methoxymethyl)-5,6-dihydroimidazo[1,2-a][1,2,4]triazolo[3,4-c]pyrazin-9-yl)-5-methyl-N-(1-methyl-1H-pyrazol-5-yl)pyrimidin-2-amine] |

Source: patent US12492210B2, “Tricyclic compounds and their use” (HUTCHISON MEDIPHARMA LIMITED, priority 2019, dated 2025)
